Where a SMILES comes first, the peptide text is derived from it.
What was measured:
[1] = tested on: photoreceptors of rd10 mice; test: ONL thickness (histology, spider plot), rd10 mice; type: in vivo, mouse; conditions: for OS length and ONL thickness vs vehicle-treated or untreated eyes: daily eye drops, P21
Procedure: Both eyes were oriented before enucleation to allow sectioning along the dorsal/ventral axis. Enucleated eyes from rd10 and rd10/Serpinf1^-/- mice were incised in the cornea and fixed in 2.5% glutaraldehyde for 20 min and then in 10% neutral buffered formalin at 4 °C for at least 48 h, followed by paraffin embedding, sectioning, and staining with either H&E or immunofluorescence procedures. Slides containing retinal sections were deparaffinized by immersing the slides in various subsequent ethanol dilutions(100%, 95%,70% and 50%), then rinsed with phosphate-buffered saline, pH 7.4 (PBS, Quality Biological, 119-069-101), followed by incubation in blocking buffer containing 0.5% normal donkey serum (Abcam, ab7475), 0.5% bovine serum albumin (BSA, GoldBio, A-420-100), 0.1% Triton X-100 (Sigma, T8787-100) in PBS pH 7.4 for 2 h at room temperature. For fluorescence microscopy, antibodies, and 0.1 µg/ml DAPI were used to immunostain and counterstain the nuclei, respectively. Antibodies used in the study are listed in Supplementary Table 3. Images were acquired using a ZEIS 700 confocal microscope. Fluorescence intensity was quantified using ImageJ, and a rectangle was selected around regions of interest (ROIs), channels were split for multiple antibodies, threshold was adjusted, noise was de-speckled, and fluorescence intensity was measured.
To generate spider plots, the ONL thickness was measured from images passing through the optic nerve (ON) acquired with light microscopy of the retina sections stained with H&E or images of retina sections stained with DAPI with a dorsal-ventral orientation. The ONL thickness in the entire retina sections was measured at 5 different positions from both sides of the ON using ImageJ[28]. Alternatively, for DAPI stained images, a customed macro implemented in ImageJ was used to select only the ONL.
Fig. 4 Effect of eyedrops of 17-mer and H105A peptides on photoreceptor morphology of rd10 and rd10/Serpinf1^-/- mice. a Illustration of the experimental timeline of peptide application. RE and LE refer to the right and left eyes, respectively. Histological Evaluation. Representative microphotographs of retina sections from rd10 (b) and rd10/Serpinf1^-/- (c) mice treated with 17-mer, H105A, or R99A peptides at 1 mg/ml, or with vehicle (HBSS), compared to wild type C57BL/6 J mice. Sections were stained with hematoxylin and eosin. Spider Plot illustrate the thickness of the outer nuclear layer (ONL) in rd10 (d) and rd10/Serpinf1^-/- (e) mice. Five retinas (n = 5) per group were analyzed and each data point represents the average ± SD per location relative to the optic nerve (ON), analyzed using One-way ANOVA with Šídák’s multiple comparisons test. […]

[2] = tested on: rod photoreceptor outer segments of RhoP23H/+ mice; test: OS thickness labelled by rhodopsin, RhoP23H/+ mice; type: in vivo, mouse; conditions: Fig 6e
Procedure: Eyes from Rho^P23H/+ mice eyes were enucleated and fixed in Davidson’s fix (8% formaldehyde (Merck, cat. F8775), 32% ethanol (Carlo Erba, cat. 414608), 10% acetic acid (Merck, cat. 695092)) over-night. After embedding in paraffin, 14 μm sections were collected. For TUNEL, sections were treated with […] Citrate Buffer pH 6 (10 mM Tri-sodium citrate (Carlo Erba, cat. 368007)), 0.2 mM citric acid (Merck, cat: 251275) in microwave for 5 min, then labeling was performed for one h at 37 °C using the In Situ Cell Death Detection Kit (Merck, cat. 12156792910). Rod photoreceptors were labeled with anti-RHO 1D4 antibody followed by Alexa Fluor 568 anti-mouse secondary antibody. Cone photoreceptors were labeled with anti-Opsin Blue (Merck, cat. AB5407) and anti-Opsin Red/Green (Merck, cat. AB5405). GFP localization in control transduced retinas was identified with specific anti-GFP antibody and Alexa Fluor 488 anti-mouse secondary antibody. Microglial cell labeling was performed using anti-Iba1 antibody (Wako, cat. 019-19741). For nuclear staining, 0.1 μg/ml DAPI was used. Slides were mounted with Mowiol 4–88 (Merck) and images acquired with a Zeiss Axio Imager A2 fluorescence microscope. To count TUNEL positive cells the RETINA Analysis Tool kit for ImageJ was used[37].
Fig. 6 Effects of eye drops containing H105A peptide in the photoreceptors of Rho^P23H/+ mice. a Scheme of experimental design. Daily peptide eye drops (5 µl of 1 mg/ml peptide) were applied to mice starting at P14 until P19 when immunofluorescence of retinal cross sections was performed. The contralateral control eyes were treated with vehicle HBSS. RE and LE refer to the right and left eyes, respectively. b Immunostaining was performed with antibodies against BAX or BCL2 (green), and DAPI (blue). Histograms show quantification of immunofluorescence intensity for BAX and BCL2 markers. […] Each individual data point represents the average of five (n = 5) retinas ± SD, with statistical significance determined between H105A and vehicle by paired t-test (****p < 0.0001). […] Statistical significance between H105A and untreated is indicated by ∗p ≤ 0.05, and ∗∗p ≤ 0.01. […] Presented as average ± SD, with statistics performed using One-way ANOVA Šídák’s multiple comparisons test. ∗p ≤ 0.05

[3] = Stability of peptide H105A against temperature (storage); type: physicochemical
Procedure: Lyophilized peptides were dissolved in sterile HBSS at 1 mg/ml and stored at −20 °C. Before the peptides were used, the peptide solution was brought to room temperature and subjected to centrifugation (Eppendorf, Centrifuge 5430 R) at 20,800 x g for 10 min at 4 °C to clear and separate particulate material. In case a precipitate was found, the pH of the solution was adjusted to neutral pH with either NaOH or HCl and all peptides were soluble. The concentration of peptide solutions was determined using spectrophotometry (NanoDrop, Thermo Fisher Scientific). The stability of peptide H105A against temperature was performed and summarized in Supplementary Table 2.
Supplementary Table 2. Stability of 17- mer[H105A] peptide.
Concentration (mg/mL) Store Concentration (mg/mL)
*FT, Freeze and thaw cycles daily

Row | Compound | ONL thickness ([1]; daily eye drops 5 µl of 1 mg/ml P15-P24, assessed P25) | OS length and ONL thickness vs vehicle-treated or untreated eyes [1] | ONL thickness ([1]; eye drops every other day P15-P23, assessed P25) | Outer segments (OS) thickness ([2]; replicate 1 of 9) | Outer segments (OS) thickness ([2]; replicate 2 of 9) | Outer segments (OS) thickness ([2]; replicate 3 of 9) | Outer segments (OS) thickness ([2]; replicate 4 of 9) | Outer segments (OS) thickness ([2]; replicate 5 of 9) | Outer segments (OS) thickness ([2]; replicate 6 of 9) | Outer segments (OS) thickness ([2]; replicate 7 of 9) | Outer segments (OS) thickness ([2]; replicate 8 of 9) | Outer segments (OS) thickness ([2]; replicate 9 of 9) | Concentration, Day 8 ([3]; sample 1, stored at RT) | Concentration, Day 8 ([3]; sample 2, stored at 4°C) | Concentration, Day 8 ([3]; sample 3, stored at -20°C) | Concentration, Day 8 ([3]; sample 4, stored at -20°C [FT], freeze and thaw cycles daily)
1 | CC[C@H](C)[C@H](NC(=O)[C@H](CC(C)C)NC(=O)[C@H](CC(=O)O)NC(=O)[C@H](Cc1ccc(O)cc1)NC(=O)[C@H](Cc1ccc(O)cc1)NC(=O)[C@H](CC(C)C)NC(=O)[C@H](C)NC(=O)[C@H](CCCNC(=N)N)NC(=O)[C@H](C)NC(=O)[C@@H](NC(=O)[C@@H](NC(=O)[C@H](CO)NC(=O)[C@H](CCC(=O)O)NC(=O)[C@@H](NC(=O)[C@H](CCCNC(=N)N)NC(=O)[C@@H](N)CCC(N)=O)[C@@H](C)O)[C@@H](C)CC)[C@@H](C)CC)C(=O)N[C@@H](CO)C(=O)O [H105A] (H-QRTESIIARALYYDLIS-OH) | a rescue in the ONL thickness | longer OS and thicker outer nuclear layer | a rescue in the ONL thickness | 14.6 µm | 11.1 µm | 16.1 µm | 15.5 µm | 14.5 µm | 14.6 µm | 12.4 µm | 20.7 µm | 16.5 µm | 1080 µg/mL | 1160 µg/mL | 1080 µg/mL | 1280 µg/mL
2 | CC[C@H](C)[C@H](NC(=O)[C@H](CC(C)C)NC(=O)[C@H](CC(=O)O)NC(=O)[C@H](Cc1ccc(O)cc1)NC(=O)[C@H](Cc1ccc(O)cc1)NC(=O)[C@H](CC(C)C)NC(=O)[C@H](C)NC(=O)[C@H](CCCNC(=N)N)NC(=O)[C@H](Cc1c[nH]cn1)NC(=O)[C@@H](NC(=O)[C@@H](NC(=O)[C@H](CO)NC(=O)[C@H](CCC(=O)O)NC(=O)[C@@H](NC(=O)[C@H](C)NC(=O)[C@@H](N)CCC(N)=O)[C@@H](C)O)[C@@H](C)CC)[C@@H](C)CC)C(=O)N[C@@H](CO)C(=O)O [R99A] (H-QATESIIHRALYYDLIS-OH) |  | no effect |  |  |  |  |  |  |  |  |  |  |  |  |  | 

Reference: article PMC11928584, “H105A peptide eye drops promote photoreceptor survival in murine and human models of retinal degeneration” (Communications Medicine, 2025)
